What all share (type): biochemical
One assay addresses T1, α-synuclein (α-syn) (Homo sapiens, UniProt P37840).
T1 construct: purchased rPeptide
As to the kind of experiment: Thioflavin-T (ThT) fluorescence assay of α-syn fibril formation. Conditions: compounds at 100 μM, α-syn 6.25 μM, control 0.25% DMSO; for remaining activity at 100 µM: read-out: ThT a-Syn (%), maximum thioflavin T (ThT) intensity in percentage. As for the experimental part: (§1) Thioflavin-T (ThT) fluorescence assays. Thioflavin-T (ThT) fluorescence assays were used to monitor fibril formation of recombinant Ap (fragments 1-40 and 1-42), recombinant α-syn, recombinant tau isoform 2N4R, synthetic IAPP, and synthetic TTR peptides treated with BTA and its derivatives. The IAPP ThT assay was performed in 10 mM PBS (pH 7.4) at a final concentration of 10 μM for both IAPP and ThT as published previously. Aβ fragments 1-40 and 1-42 were tested at 7 μM in 10 mM of PBS using ThT at a final concentration of 20 μM. Kinetics of α-syn fibrillization were performed as published previously.^36-37 TTR fragment kinetics of fibril formation were assessed at 10 μM in 100 mM sodium acetate buffer supplemented with 100 mM KCl and 1 mM ethylenediaminetetraacetic acid (EDTA) (pH 4) with 20 μM ThT. The fluorescence emission experiments were performed with the excitation and emission wavelengths set at 440 and 485 nm, respectively, with a Synergy HT multi-mode microplate reader (BioTek, Winooski, VT). Samples were measured in three replicates, and the experiments were repeated three times using at least two different stock solutions. For each time point, arbitrary units of fluorescence were calculated from the mean values normalized against the maximum value in each completed assay. The lag time for each condition was calculated as previously described. All results contained in histograms were presented as mean±SEM. Data were analyzed by the one-way analysis of variance with Dunnett's multiple comparisons between controls and compounds. Differences were considered statistically significant at p<0.05.
(§2) Compounds with the highest anti-fibrillary activity were tested at 3.125, 6.25, 12.5, 25, 50, and 100 μM to obtain dose-response curves with prepared α-syn and 2N4R tau at 6.25 μM and 6 μM, respectively. Compounds were tested with α-syn using a previously published procedure. Concerning the tau (isoform 2N4R) kinetics of fibril formation, measurements of ThT fluorescence were performed with a solution of the protein diluted to a final concentration of 6 μM in PBS (pH 7.4) supplemented with 1.5 μM heparin, 20 μM ThT, 2.5 mM DTT, and 100 μM compound. Aliquots of the diluted protein solution (100 μL each) were pipetted into the wells of a 96-well plate, and a Teflon ball was added to each well. The plate was incubated at 37° C. with constant shaking at 1,000 rpm in a Tecan Spark plate reader. ThT fluorescence was measured every 15 minutes with excitation and emission wavelengths of 440 nm and 480 nm, and the data were plotted using GraphPad Prism.

The target in assay [1] is T2, transthyretin fragment peptide (TTR81-127) (Homo sapiens, UniProt P02766).
T2 construct: TTR fragment 81-127 was obtained from AnaSpec; purchased AnaSpec; host or cells: synthetic peptide
Kind of assay: ThT fluorescence assay of TTR81-127 fibril formation. To be noted: for remaining activity at 100 µM: compounds at 100 μM, TTR81-127 10 μM, control 0.25% DMSO, read-out: ThT TTR81-127 (%), maximum thioflavin T (ThT) intensity in percentage. As for the experimental part:
as §1

The next assay concerns the target T3, TTR101-125 (Homo sapiens, UniProt P02766).
T3 construct: TTR fragments 1-25, 26-50, 51-75, 76-100, 81-105, 101-125, and 101-125 were obtained from GenScript; purchased GenScript; host or cells: synthetic peptide
As to the kind of experiment: ThT fluorescence assay of TTR101-125 fibril formation. As for the experimental part:
as §1

For a further assay, the target named is T4, tau isoform 2N4R (Homo sapiens, UniProt P10636).
T4 construct: made in house; host or cells: E. coli BL21(DE3)
Kind of assay: ThT kinetics of tau isoform 2N4R fibril formation. Conditions: tau 6 μM, compound 100 μM. As for the experimental part: The bacterial expression plasmid consisting of the vector pRK172 carrying a cDNA encoding the human Tau 2N4R isoform was obtained from Dr. David Eliezer (Weill Cornell Medicine, New York, NJ). For protein expression, E. coli BL21(DE3) cells were transformed with the plasmid and grown in LB media supplemented with ampicillin (100 μg/mL). Protein over-expression was induced by the addition of 1 mM IPTG for 4 hours at 37° C., and cells were pelleted by centrifugation at 6,000 g for 15 minutes at 4° C. The cells were resuspended in lysis buffer (20 mM MES, 400 mM NaCl, 0.2 mM MgCl2, 1 mM EGTA, protease inhibitor cocktail (P8340, Sigma Aldrich), 0.25 mg/mL lysozyme, and 1 μg/mL DNase 1, pH 6.8) and lysed by a French press cell disruptor at 4° C., after which the lysate was boiled for 20 minutes. Denatured proteins were pelleted by centrifugation at 30,000 g for 30 minutes at 4° C., and the supernatant was dialyzed overnight against cation exchange buffer (20 mM MES, 50 mM NaCl, 1 mM MgCl2, 1 mM EGTA, 2 mM DTT, 0.1 mM PMSF, pH 6.8). The dialysate was loaded onto a HiPrep SP HP column, and proteins were eluted with a linear gradient ranging from 50 mM to 1 M NaCl. Fractions containing tau isoform 2N4R were pooled, and the resulting protein solution was dialyzed against PBS (pH 7.4) and stored at −80° C.
as §2

[2] abbreviates: compound 100 μM, molar ratio 1:10.

The structures appear in SMILES notation.

T4 sequence (P10636 1-441 isoform P10636-8): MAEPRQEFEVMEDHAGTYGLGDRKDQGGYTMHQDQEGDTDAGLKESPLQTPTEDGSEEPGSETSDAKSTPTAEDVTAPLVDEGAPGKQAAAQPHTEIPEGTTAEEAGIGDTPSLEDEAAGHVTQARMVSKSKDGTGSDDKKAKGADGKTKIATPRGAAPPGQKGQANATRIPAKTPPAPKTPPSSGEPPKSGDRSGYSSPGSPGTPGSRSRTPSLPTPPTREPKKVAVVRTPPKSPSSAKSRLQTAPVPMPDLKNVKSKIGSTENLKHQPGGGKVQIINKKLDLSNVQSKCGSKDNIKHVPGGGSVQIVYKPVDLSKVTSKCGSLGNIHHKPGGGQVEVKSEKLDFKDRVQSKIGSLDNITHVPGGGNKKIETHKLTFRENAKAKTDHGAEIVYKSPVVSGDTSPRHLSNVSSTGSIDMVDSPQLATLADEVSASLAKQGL

For the compound `CS(=O)(=O)N(c1nsc2ccc([N+](=O)[O-])cc12)S(C)(=O)=O` [Compound 12, N-methanesulfonyl-N-(5-nitro-1,2-benzothiazol-3-yl)methanesulfonamide], the remaining activity at 100 µM is above 100% at α-synuclein (α-syn) and 63 ± 17.4% in assay [1].

As to `O=C(Cc1cccs1)Nc1nsc2ccc([N+](=O)[O-])cc12` [Compound 9], the remaining activity at 100 µM on α-synuclein (α-syn) is above 100%; in assay [1] it was 69 ± 0.1%.

With `O=C(CCl)Nc1nsc2ccc([N+](=O)[O-])cc12` [Compound 11, 2-chloro-N-(5-nitro-1,2-benzothiazol-3-yl)acetamide], at α-synuclein (α-syn), the “ThT a-Syn (%), maximum thioflavin T (ThT) intensity in percentage” value was 45.3 ± 12.9% and the remaining activity at 100 µM is 45.3 ± 12.9%. In assay [1], the remaining activity at 100 µM came out at 59.7 ± 2.6%.

In the case of `O=[N+]([O-])c1ccc2snc(Nc3ncnc(Cl)n3)c2c1` [Compound 7, N-(4-chloro-1,3,5-triazin-2-yl)-5-nitro-1,2-benzothiazol-3-amine], the remaining activity at 100 µM (on α-synuclein (α-syn); in assay [1]) was above 100% each time.

With `O=C(Cc1ccccc1)Nc1nsc2ccc([N+](=O)[O-])cc12` [Compound 8, N-(5-nitro-1,2-benzothiazol-3-yl)-2-phenylacetamide], the remaining activity at 100 µM on α-synuclein (α-syn) is above 100%; in assay [1], 95.2 ± 1.2%.

For the compound `CC(=O)c1ccc(NC(=S)Nc2ccc(-c3nc4ccccc4s3)cc2)cc1` [Compound 2, 1-(4-acetylphenyl)-3-[4-(1,3-benzothiazol-2-yl)phenyl]thiourea], the “TTR101-125 fibril formation (ThT)” value at TTR101-125 (compound 50 μM, molar ratio 1:5) is reported as “weak in inhibiting TTR101-125 fibril formation”; on TTR101-125 (setting [2]), “to a lesser extent, compound 2 reduced fibril formation”. Further, the “TTR81-127 fibril formation (ThT)” value in assay [1] (setting [2]) was “to a lesser extent, compound 2 reduced fibril formation”.

Consider `CC(=O)Nc1nsc2ccc([N+](=O)[O-])cc12` [Compound 10, N-(5-nitro-1,2-benzothiazol-3-yl)acetamide], for which the “production of tau isoform 2N4R fibrils (ThT kinetic aggregation curves)” value at tau isoform 2N4R is recorded as “reduced the production of tau isoform 2N4R fibrils”. The “ThT a-Syn (%), maximum thioflavin T (ThT) intensity in percentage” value at α-synuclein (α-syn) came out at 55.6 ± 3.2%. Also, the remaining activity at 100 µM at α-synuclein (α-syn) is 55.6 ± 3.2%; in assay [1], 90.2 ± 2.7%.

In the case of `O=[N+]([O-])c1ccc2snc(Nc3nc(Cl)nc(Cl)n3)c2c1` [Compound 6, N-(4,6-dichloro-1,3,5-triazin-2-yl)-5-nitro-1,2-benzothiazol-3-amine], the remaining activity at 100 µM was above 100% at α-synuclein (α-syn) and 82.6 ± 6% in assay [1].
